Results: patent US8148392B2, “2-indolyl imidazo [4,5-d] phenanthroline derivatives and their use in the treatment of cancer” (Lorus Therapeutics Inc., priority 2005, dated 2012)
Read-outs that look alike come from different tables or passages of the source.

Assays:
supercoiled plasmid DNA = test: In vitro DNA cleavage assay; assay type: biochemical
Procedure: Compound 3 was tested for its ability to cleave plasmid DNA in vitro in the presence of copper and the reducing agent ascorbic acid. Experiments were performed in a total of 20 μl, containing 10 mM NaH2PO4/Na2HPO4 buffer (pH 6.7), 1 μg of supercoiled plasmid DNA, 100 μM ascorbic acid, 25 μM drug compound (or vehicle), and 10 μM of CuSO4.5H20. The reaction mixture was incubated at 37° C. for 30 minutes, and 1 μl of 0.1 M EDTA was added to terminate the reaction. DNA loading buffer was added, and reactions were run at 80V for 80 minutes on a 1% agarose gel containing ethidium bromide.
To determine whether ions other than copper could suffice, DNA cleavage reactions were also carried out in the presence of zinc or iron. Reactions were performed as above, in the presence of 25 μM of CuSO4.5H20, ZnCl2, or FeCl2.4H20. […] Note that copper alone in the presence of ascorbic acid can shift the ratio of supercoiled DNA to open circular DNA.
To determine the ratios of compound to copper at which compound 3 was effective, reactions were performed as in FIG. 22A. The ratios of compound 3 to copper of 3:1, 2.5:1, 2:1, 1.5:1, and 1:1, as shown in FIG. 23 were achieved by maintaining the concentration of Cu constant at 10 μM, and varying the concentration of compound 3. The ratios of compound 3 to Cu of 1:1.5, 1:2, 1:2.5, and 1:3, were achieved by maintaining the concentration of compound 3 constant at 10 μM, and varying the concentration of copper.
Other compounds of Formula I, compounds 5, 7, 9 and 13 were also tested for their ability to cleave DNA at a ratio of 2.5:1 to copper (FIG. 23). Ratios of compound 3:copper as indicated, plus concentrations of copper in the absence of compound 3 were used in the DNA cleavage assay as described above.

[1] = system: human colon carcinoma HT-29 cells; test: XTT cell proliferation assay, HT-29; assay type: cell-based; settings: HT-29, XTT
Procedure: The ability of compounds of Formula I to inhibit the proliferation of human colon carcinoma HT-29 cells was tested as follows. HT-29 colon carcinoma cells used in this example and subsequent examples were maintained as a monolayer in a growth medium; McCoy's 5A modified medium (Sigma, St. Louis, Mo.), supplemented with 2 mM L-glutamine (Gibco, Grand Island, N.Y.), 10% fetal bovine serum (FBS) (Multicell, WISENT Inc. St-Bruno, QC), antibiotic-antimycotic (Multicell), at 37° C. in a 5% CO2-humidified incubator. Cells were transferred onto 150 mm tissue culture plates and grown until sub-confluency (70-80%) prior to their use. The in vitro antiproliferative activity of compounds was evaluated by incubating the cells with varying concentrations of the compounds as shown in Table 1 for 6-7 days. The efficacy of these compounds in this cell proliferation assay was measured based in the ability of live cells to reduce the tetrazolium salt XTT to orange colored compounds of formazan (XTT cell proliferation kit II, Roche Applied Science, Montreal, QC).
The ability of compounds of Formula I to inhibit the proliferation of human colon carcinoma HT-29 cells was tested as described above in Example 13.
Cell growth inhibition IC50 (μM) by compounds of Formula I was tested on various cancer cell types by XTT cell proliferation assay. The growth inhibitory effects of the compounds of Formula I as shown below for the melanoma cell line SK-MEL-2 were reproducible by Lorus Therapeutics Inc.

[2] = Homo sapiens, as Example 13, Table 7, read-out: IC50
[3] = Homo sapiens, 6-7 days, Table 3, read-out: IC50

IC50 ([1]; as Example 13, Table 7)	Structure (SMILES)	also measured
	c1cnc2c(c1)ccc1cccnc12 [1,10-phenanthroline (OP), 1,10-phenanthroline, reference compound]	cleavage of plasmid DNA (supercoiled plasmid DNA; 25 μM compound, 10 μM CuSO4, 100 μM ascorbic acid, 37° C., 30 minutes): able to cleave plasmid DNA; cleavage of plasmid DNA (supercoiled plasmid DNA; absence of copper or reducing agent): Neither compound 3 nor OP was able to cleave DNA
2 µg/mL	c1ccc2c(-c3nc4c5cccnc5c5ncccc5c4[nH]3)c[nH]c2c1 [Compound 1]	
	Fc1ccc2[nH]cc(-c3nc4c5cccnc5c5ncccc5c4[nH]3)c2c1 [Compound 4]	IC50 [1, 2]: 3.5 µg/mL
	COc1ccc2[nH]c(C)c(-c3nc4c5cccnc5c5ncccc5c4[nH]3)c2c1 [Compound 6]	IC50 [1, 3]: 1400 nM; IC50 [1, 2]: 1.4 µg/mL
	Cc1[nH]c2ccc(O)cc2c1-c1nc2c3cccnc3c3ncccc3c2[nH]1 [Compound 8]	IC50 [1, 2]: > 25 µg/mL
	Fc1ccc(-c2[nH]c3ccccc3c2-c2nc3c4cccnc4c4ncccc4c3[nH]2)cc1 [Compound 10]	IC50 [1, 3]: 180 nM; IC50 [1, 2]: 0.18 µg/mL
0.37 µg/mL	Cn1c(-c2ccccc2)c(-c2nc3c4cccnc4c4ncccc4c3[nH]2)c2ccccc21 [Compound 18]	
3.5 µg/mL	Cc1[nH]c2ccc([N+](=O)[O-])cc2c1-c1nc2c3cccnc3c3ncccc3c2[nH]1 [Compound 38]	
0.45 µg/mL	CC(C)(C)c1[nH]c2ccccc2c1-c1nc2c3cccnc3c3ncccc3c2[nH]1 [Compound 39]	
0.31 µg/mL	Clc1ccc(-c2[nH]c3ccccc3c2-c2nc3c4cccnc4c4ncccc4c3[nH]2)cc1 [Compound 42]	
>5-25< μg/ml	Cc1c(-c2nc3c4cccnc4c4ncccc4c3[nH]2)c2ccccc2n1CC(=O)N1CCCC1 [Compound 43]	
>5-25<, μg/ml	O=C(Cn1cc(-c2nc3c4cccnc4c4ncccc4c3[nH]2)c2ccccc21)N1CCOCC1 [Compound 44]	
7 µg/mL	O=C(Cn1cc(-c2nc3c4cccnc4c4ncccc4c3[nH]2)c2ccccc21)N1CCCCCC1 [Compound 45]	
>5-25< μg/ml	O=C(Cn1cc(-c2nc3c4cccnc4c4ncccc4c3[nH]2)c2ccccc21)N1CCCC1 [Compound 46]	
5 µg/mL	O=C(Cn1cc(-c2nc3c4cccnc4c4ncccc4c3[nH]2)c2ccccc21)N1CCCCC1 [Compound 47]	
>5-25< μg/ml	O=C(Cn1cc(-c2nc3c4cccnc4c4ncccc4c3[nH]2)c2cc(Br)ccc21)N1CCCC1 [Compound 49]	
2.3 µg/mL	CC1CCCC(C)N1C(=O)Cn1cc(-c2nc3c4cccnc4c4ncccc4c3[nH]2)c2ccccc21 (centres unmarked) [Compound 50]	
5 µg/mL	CC1CCN(C(=O)Cn2cc(-c3nc4c5cccnc5c5ncccc5c4[nH]3)c3ccccc32)CC1 [Compound 51]	
0.19 µg/mL	CC(C)n1cc(-c2nc3c4cccnc4c4ncccc4c3[nH]2)c2ccccc21 [Compound 52]	
0.19 µg/mL	c1ccc2c(c1)c(-c1nc3c4cccnc4c4ncccc4c3[nH]1)cn2C1CCCC1 [Compound 53]	
0.28 µg/mL	COc1ccc2c(c1)c(-c1nc3c4cccnc4c4ncccc4c3[nH]1)cn2C(C)C [Compound 54]	
2.4 µg/mL	Cc1c(-c2nc3c4cccnc4c4ncccc4c3[nH]2)c2ccccc2n1CC(=O)N1CCC(C)CC1 [Compound 55]	
5 µg/mL	Cc1c(-c2nc3c4cccnc4c4ncccc4c3[nH]2)c2ccccc2n1CC(=O)N1CCCCCC1 [Compound 56]	
5 µg/mL	Cc1c(-c2nc3c4cccnc4c4ncccc4c3[nH]2)c2ccccc2n1CC(=O)N1CCCCC1 [Compound 57]	
>	CN1CCN(C(=O)Cn2cc(-c3nc4c5cccnc5c5ncccc5c4[nH]3)c3ccccc32)CC1 [Compound 58]	

IC50 ([1]; as Example 13, Table 7)	Structure (SMILES)	also measured
0.6 µg/mL	Cn1c(N2CCOCC2)c(-c2nc3c4cccnc4c4ncccc4c3[nH]2)c2ccccc21 [Compound 59]	
0.4 µg/mL	CC(C)c1ccc2[nH]c(C(C)(C)C)c(-c3nc4c5cccnc5c5ncccc5c4[nH]3)c2c1 [Compound 61]	
<0.1 µg/mL	Cc1cccc2c(-c3nc4c5cccnc5c5ncccc5c4[nH]3)c(C(C)(C)C)[nH]c12 [Compound 62]	
0.35 µg/mL	CC(C)(C)c1[nH]c2ccc(F)cc2c1-c1nc2c3cccnc3c3ncccc3c2[nH]1 [Compound 65]	
0.4 µg/mL	CC(C)(C)c1[nH]c2c(F)cc(F)cc2c1-c1nc2c3cccnc3c3ncccc3c2[nH]1 [Compound 66]	
0.34 µg/mL	CC(C)(C)c1[nH]c2ccc(-c3ccccc3)cc2c1-c1nc2c3cccnc3c3ncccc3c2[nH]1 [Compound 68]	
0.35 µg/mL	Cc1ccc(C)c2c(-c3nc4c5cccnc5c5ncccc5c4[nH]3)c(C34CC5CC(CC(C5)C3)C4)[nH]c12 [Compound 70]	
3 µg/mL	CC(C)(C)c1[nH]c2ccc(C#N)cc2c1-c1nc2c3cccnc3c3ncccc3c2[nH]1 [Compound 71]	
0.18 µg/mL	Fc1ccc2[nH]c(C34CC5CC(CC(C5)C3)C4)c(-c3nc4c5cccnc5c5ncccc5c4[nH]3)c2c1 [Compound 72]	
0.22 µg/mL	CC(C)(C)c1ccc2[nH]c(C3CCCC3)c(-c3nc4c5cccnc5c5ncccc5c4[nH]3)c2c1 [Compound 73]	
0.18 µg/mL	Cc1ccccc1-c1[nH]c2ccc(C(C)(C)C)cc2c1-c1nc2c3cccnc3c3ncccc3c2[nH]1 [Compound 74]	
>25 µg/mL	O=S(=O)(c1ccc2[nH]c(Cl)c(-c3nc4c5cccnc5c5ncccc5c4[nH]3)c2c1)N1CCOCC1 [Compound 75]	
>25 µg/mL	CN(C)S(=O)(=O)c1ccc2[nH]c(Cl)c(-c3nc4c5cccnc5c5ncccc5c4[nH]3)c2c1 [Compound 76]	
0.24 µg/mL	Cc1c(-c2nc3c4cccnc4c4ncccc4c3[nH]2)c2cc(F)ccc2n1Cc1ccccc1 [Compound 77]	
0.38 µg/mL	c1ccc2c(-c3nc4c5cccnc5c5ncccc5c4[nH]3)c(C34CC5CC(CC(C5)C3)C4)[nH]c2c1 [Compound 78]	
0.65 µg/mL	CC(C)c1[nH]c2ccccc2c1-c1nc2c3cccnc3c3ncccc3c2[nH]1 [Compound 79]	
0.42 µg/mL	c1ccc2c(-c3nc4c5cccnc5c5ncccc5c4[nH]3)c(C3CCCCC3)[nH]c2c1 [Compound 80]	
0.4 µg/mL	c1ccc2c(-c3nc4c5cccnc5c5ncccc5c4[nH]3)c(C3CCCC3)[nH]c2c1 [Compound 81]	
0.61 µg/mL	CC(C)c1[nH]c2ccc(F)cc2c1-c1nc2c3cccnc3c3ncccc3c2[nH]1 [Compound 82]	
0.1 µg/mL	Cc1ccc(F)c2c(-c3nc4c5cccnc5c5ncccc5c4[nH]3)c(C(C)(C)C)[nH]c12 [Compound 83]	
0.39 µg/mL	Cc1cc(Cl)cc2c(-c3nc4c5cccnc5c5ncccc5c4[nH]3)c(C(C)(C)C)[nH]c12 [Compound 84]	
0.24 µg/mL	Cc1ccc(Cl)c2c(-c3nc4c5cccnc5c5ncccc5c4[nH]3)c(C(C)(C)C)[nH]c12 [Compound 85]	
0.47 µg/mL	CCc1ccc2[nH]c(C(C)(C)C)c(-c3nc4c5cccnc5c5ncccc5c4[nH]3)c2c1 [Compound 86]	
0.42 µg/mL	CC(C)(C)c1[nH]c2ccc(Br)cc2c1-c1nc2c3cccnc3c3ncccc3c2[nH]1 [Compound 87]	
0.38 µg/mL	CC(C)(C)c1[nH]c2c(F)cccc2c1-c1nc2c3cccnc3c3ncccc3c2[nH]1 [Compound 88]	
